Measurements taken from the supplement of paper PMC8671470.
± gives the standard deviation of the averaged measurements.

System: HL-60
Test: cell viability (% survival relative to DMSO control); higher = less cytotoxic
Settings: 72 h
Method in brief: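 In 384-well plates, the full library was rescreened in duplicate on HL-60 cells in RPMI 1640 with 10% FBS, at 1–10,000 nM in five tenfold concentrations, for 72 h at 37 °C, 5% CO2. Each run also held DMSO or 100 nM of one of three metabolic inhibitors. Viability was measured by CellTiter-Glo and normalised to DMSO wells and to wells with proteasome inhibitor, present at 10 μM. Any area under the curve comes from four-parameter log-logistic fitting with drc and PharmacoGx.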

[1] = 0.001 µM, co-treatment: AZD3965 100 nM
[2] = 0.001 µM, co-treatment: DMSO vehicle
[3] = 0.001 µM, co-treatment: GSK2194069 100 nM
[4] = 0.001 µM, co-treatment: pictilisib 100 nM
[5] = 0.01 µM, co-treatment: AZD3965 100 nM
[6] = 0.01 µM, co-treatment: DMSO vehicle
[7] = 0.01 µM, co-treatment: GSK2194069 100 nM
[8] = 0.01 µM, co-treatment: pictilisib 100 nM
[9] = 0.1 µM, co-treatment: AZD3965 100 nM
[10] = 0.1 µM, co-treatment: DMSO vehicle
[11] = 0.1 µM, co-treatment: GSK2194069 100 nM
[12] = 0.1 µM, co-treatment: pictilisib 100 nM
[13] = 1 µM, co-treatment: AZD3965 100 nM
[14] = 1 µM, co-treatment: DMSO vehicle
[15] = 1 µM, co-treatment: GSK2194069 100 nM
[16] = 1 µM, co-treatment: pictilisib 100 nM
[17] = 10 µM, co-treatment: AZD3965 100 nM
[18] = 10 µM, co-treatment: DMSO vehicle
[19] = 10 µM, co-treatment: GSK2194069 100 nM
[20] = 10 µM, co-treatment: pictilisib 100 nM

Row | Structure (SMILES) | cell viability [1] [%] | cell viability [2] [%] | cell viability [3] [%] | cell viability [4] [%] | cell viability [5] [%] | cell viability [6] [%] | cell viability [7] [%] | cell viability [8] [%] | cell viability [9] [%] | cell viability [10] [%] | cell viability [11] [%] | cell viability [12] [%] | cell viability [13] [%] | cell viability [14] [%] | cell viability [15] [%] | cell viability [16] [%] | cell viability [17] [%] | cell viability [18] [%] | cell viability [19] [%] | cell viability [20] [%]
1 | C[C@]12CC[C@H](O)CC1=CC[C@@H]1[C@@H]2CC[C@]2(C)C(c3cccnc3)=CC[C@@H]12 [Abiraterone] | 109 ± 10 | 97.8 ± 1.5 | 106.3 ± 0.78 | 104 ± 14 | 103 ± 1.9 | 98 ± 2.3 | 96.1 ± 4.2 | 102 ± 8 | 93.4 ± 14 | 93.1 ± 11 | 86.9 ± 16 | 84.9 ± 22 | 100.2 ± 0.73 | 97.9 ± 1.7 | 107 ± 11 | 99.5 ± 8.8 | 103 ± 5.8 | 105 ± 5.8 | 105 ± 8.8 | 108 ± 1.3
2 | O=C(COc1ccc(C(=O)c2ccccc2)cc1)NC1CCN(Cc2ccccc2)CC1 [AdipoRon] | 101 ± 1.2 | 99.7 ± 4.2 | 105 ± 6.7 | 97.7 ± 7.3 | 99.9 ± 9.8 | 100.3 ± 0.47 | 103 ± 5.5 | 104 ± 8 | 106 ± 2 | 104 ± 5.3 | 101 ± 3.1 | 97.7 ± 3.8 | 98.45 ± 0.62 | 80.8 ± 30 | 92.1 ± 7.6 | 92.4 ± 10 | 105 ± 3.6 | 105 ± 5.4 | 93.3 ± 6.3 | 91.2 ± 1.6
3 | CCOC(=O)[C@H]1O[C@@H]1C(=O)N[C@@H](CC(C)C)C(=O)NCCC(C)C [Aloxistatin] | 100 ± 1.1 | 102 ± 6 | 102 ± 11 | 106 ± 11 | 101 ± 4.6 | 104 ± 7.9 | 106 ± 15 | 115 ± 19 | 98 ± 5.8 | 100 ± 1.2 | 95.8 ± 2.5 | 100 ± 6.3 | 97.6 ± 3.7 | 100 ± 1.4 | 92.5 ± 11 | 106 ± 5.1 | 103 ± 6.2 | 99.7 ± 2.7 | 115 ± 23 | 99.7 ± 3.2
4 | N[C@](CCCCB(O)O)(CCN1CCCCC1)C(=O)O [Arginase inhibitor 1] | 94.6 ± 14 | 102.5 ± 0.45 | 91.7 ± 12 | 87.5 ± 14 | 98.6 ± 5.9 | 97.3 ± 2 | 100 ± 5.7 | 94.4 ± 4.9 | 99.9 ± 2.7 | 102 ± 3.7 | 109.7 ± 0.86 | 98.3 ± 3 | 99.151 ± 0.014 | 98.12 ± 0.95 | 90.6 ± 12 | 90.8 ± 6.9 | 102.3 ± 0.42 | 103 ± 7.5 | 101 ± 6.6 | 99.5 ± 2.6
5 | Cc1noc2c1-c1ccccc1C(c1ccc(Cl)cc1)=N[C@H]2CC(N)=O [CPI-0610] | 101 ± 2.2 | 96.3 ± 1.7 | 101 ± 1.7 | 104 ± 2.6 | 101 ± 1.5 | 95.3 ± 1.7 | 100.1 ± 0.39 | 94.4 ± 1.4 | 92 ± 14 | 98.8 ± 2.3 | 97.5 ± 6.9 | 75.5 ± 14 | 62.6 ± 7.4 | 74.8 ± 9.4 | 71.4 ± 2.1 | 45.8 ± 1.4 | 16.8 ± 1.1 | 23.7 ± 2.8 | 25.3 ± 6.1 | 8.68 ± 2.2
6 | Nc1ccn([C@@H]2O[C@H](CO)[C@@H](O)[C@@H]2O)c(=O)n1 [Cytarabine] | 82 ± 32 | 80.7 ± 36 | 99.2 ± 2.5 | 103 ± 14 | 96.1 ± 7.4 | 102 ± 1.5 | 97.4 ± 1.3 | 101 ± 5.1 | 99.4 ± 4.1 | 101 ± 2.5 | 95.8 ± 1.5 | 84.52 ± 0.57 | 46.7 ± 9.3 | 59.5 ± 7 | 60.6 ± 3.9 | 30.9 ± 0.58 | 6.3 ± 2.2 | 6.92 ± 1.2 | 7.86 ± 0.42 | 6.83 ± 3
7 | CCOc1ccc(Cc2cc([C@@H]3O[C@H](CO)[C@@H](O)[C@H](O)[C@H]3O)ccc2Cl)cc1 [Dapagliflozin] | 100.2 ± 0.34 | 105 ± 2.9 | 100.95 ± 0.06 | 99.1 ± 5.3 | 97.7 ± 4.2 | 101.3 ± 0.77 | 102 ± 1.1 | 103 ± 1.6 | 99.5 ± 0.33 | 100 ± 3.5 | 100 ± 4.8 | 101.6 ± 0.16 | 103.3 ± 0.55 | 99.6 ± 1.8 | 96 ± 1.6 | 104 ± 5.3 | 104 ± 2 | 103 ± 3.6 | 102 ± 4.6 | 100 ± 6.2
8 | CCN(CC)CCN(Cc1ccc(-c2ccc(C(F)(F)F)cc2)cc1)C(=O)Cn1c(SCc2ccc(F)cc2)nc(=O)c2c1CCC2 [Darapladib] | 96.2 ± 14 | 103.1 ± 0.25 | 98.7 ± 14 | 85.9 ± 27 | 100 ± 3.4 | 99.55 ± 0.55 | 97.8 ± 1.3 | 97.2 ± 7 | 104 ± 1.6 | 101 ± 6.2 | 99.8 ± 1.8 | 102 ± 4.5 | 93.7 ± 2.3 | 96.27 ± 0.22 | 84.4 ± 10 | 97.3 ± 7.4 | -1.351 ± 0.0054 | -2.41 ± 0.42 | -2.4 ± 0.029 | -2.26 ± 0.088
9 | O=C(O)C(Cl)Cl [Dichloroacetate] | 96.1 ± 3.5 | 96.5 ± 1.4 | 98.6 ± 9.5 | 89.5 ± 5.3 | 105 ± 4.1 | 104 ± 6.4 | 104 ± 2 | 100 ± 12 | 104 ± 4 | 102 ± 2.5 | 96.3 ± 9.7 | 91 ± 4 | 101 ± 2.4 | 101 ± 2.9 | 98.3 ± 5.9 | 99.9 ± 2.8 | 101 ± 1.1 | 100.4 ± 0.25 | 102.8 ± 0.97 | 97 ± 5.1
10 | O=C1Oc2ccccc2C(=O)C1CC1C(=O)Oc2ccccc2C1=O (stereo not given) [Dicumarol] | 101 ± 6 | 104 ± 3.1 | 122 ± 4.6 | 103 ± 4.7 | 73.3 ± 30 | 102 ± 6.2 | 62.5 ± 23 | 91 ± 15 | 100 ± 3.5 | 100 ± 1.2 | 95.5 ± 1.2 | 103 ± 9 | 101 ± 5.3 | 100 ± 8.3 | 98.8 ± 5.7 | 102 ± 11 | 97.7 ± 4 | 99.1 ± 4.8 | 85 ± 7 | 92.1 ± 5
